Measurements as given in patent publication US7130746B2, “Computer systems and computer programs for determining protein activity levels using gene expression profiles” (priority 1998, dated 2006).

Assays:
[1] = tested on: yeast Saccharomyces cerevisiae; experiment: Yeast growth under methotrexate titration; type: cell-based; conditions: 100 μM methotrexate titration
yeast gene YOL031C = experiment: Transcript array gene expression response to methotrexate, Hill function fit; type: cell-based, Saccharomyces cerevisiae
Description: FIG. 2 illustrates an example of perturbation response profiles measured at discrete protein activity levels of dihydrofolate reductase. Specifically, the figure illustrates mRNA expression levels of 30 genes of the yeast Saccharomyces cerevisiae that, of the 6000 genes in the genome of this yeast, had the largest expression changes in response to six different titrations of the drug methotrexate, which is known to act primarily by disrupting the activity of dihydrofolate reductase. These gene expression level measurements were made with gene transcript arrays, as described in Section 5.5. The perturbation response profiles in FIG. 2 can be interpolated according to the methods disclosed in Section 5.4, below, to provide perturbation response profiles for any activity level of dihydrofolate reductase, i.e., perturbation response curves.
In model fitting, the perturbation responses are interpolated by approximating each by a single parameterized function. An exemplary model-fitting function appropriate for approximating transcriptional state data is the Hill function, which has adjustable parameters a, u0 and n.
[formula] the adjustable parameters are selected independently for each cellular constituent of the perturbation response. Preferably, the adjustable parameters are selected so that for each cellular constituent the sum of the squares of the distances H(pl) from Rk(pl) is minimized. This preferable parameter adjustment method is known in the art as a least squares fit of H( ) to Rk( ). Other possible model functions are based on polynomial fitting, for example by various known classes of polynomials.
Model fitting with a Hill function is illustrated with respect to FIGS. 2 and 4. As discussed, FIG. 2 illustrates an example of perturbation by methotrexate and identified by measurement. This figure illustrates the RNA expression levels of 30 genes of the yeast S. cerevisiae that, of the approximately 6000 genes in the genome of this organism, had the largest expression changes in response to six different exposure levels of methotrexate. […]

wild type yeast cells = conditions: 10 micrograms/ml doxycycline (Gari et al., 1997); cited from earlier work

| Compound | growth defect [1] [%] | Hill function parameter n (yeast gene YOL031C; least squares fit of YOL031C expression response) | Hill function parameter a (yeast gene YOL031C; least squares fit of YOL031C expression response (log10 expression ratio)) | Hill function parameter log10(u0) (yeast gene YOL031C; least squares fit of YOL031C expression response, methotrexate exposures 3-200 μM) | effect on growth rate (wild type yeast cells) |
| --- | --- | --- | --- | --- | --- |
| CN(Cc1cnc2nc(N)nc(N)c2n1)c1ccc(C(=O)N[C@@H](CCC(=O)O)C(=O)O)cc1 [methotrexate] | 50 | 2 | −0.61 | 1.26 |  |
| C[C@H]1c2cccc(O)c2C(=O)C2=C(O)[C@]3(O)C(=O)C(C(N)=O)=C(O)[C@@H](N(C)C)[C@@H]3[C@@H](O)[C@@H]21 [doxycycline] |  |  |  |  | no significant effect |
